From US9624175B2, “Fused-bicyclic aryl quinolinone derivatives as mutant-isocitrate dehydrogenase inhibitors” (Forma Therapeutics, Inc., priority 2015, dated 2017)

Biological target: IDH1-R132H recombinant protein (Homo sapiens (Human), UniProt O75874, R132H)
Test: IDH1-R132H enzymatic assay (NADPH consumption, diaphorase/resazurin readout)
Format: biochemical
Settings: inhibition of NADPH consumption, 30 nM IDH1-R132H; read-out: Enzyme IDH1 R132H IC50
Protocol: Assays were performed in a 384-well black plate. An aliquot of 250 nL of compound was incubated with 10 μL of 30 nM IDH1-R132H or 10 nM IDH1-R132C recombinant protein in assay buffer (50 mM Tris pH=7.5, 150 mM NaCl, 5 mM MgCl2, 0.1% (w/v) Bovine Serum Albumin, and 0.01% Triton X-100) in each well at 25° C. for 15 minutes. After the plate was centrifuged briefly, an aliquot of 10 μL of 2 mM α-ketoglutarate and 20 μM NADPH solution prepared in assay buffer was then added to each well and the reaction was maintained at 25° C. for 45 minutes. An aliquot of 10 μL of diaphorase solution (0.15 U/mL diaphorase and 30 μM Resazurin in assay buffer) was added to each well. The plate was maintained at 25° C. for 15 minutes and then read on a plate reader with excitation and emission wavelengths at 535 nm and 590 nm, respectively. The IC50 of a given compound was calculated by fitting the dose response curve of inhibition of NADPH consumption at a given concentration with the four parameter logistic equation.

IDH1-R132H recombinant protein, sequence (O75874 whole entry R132H): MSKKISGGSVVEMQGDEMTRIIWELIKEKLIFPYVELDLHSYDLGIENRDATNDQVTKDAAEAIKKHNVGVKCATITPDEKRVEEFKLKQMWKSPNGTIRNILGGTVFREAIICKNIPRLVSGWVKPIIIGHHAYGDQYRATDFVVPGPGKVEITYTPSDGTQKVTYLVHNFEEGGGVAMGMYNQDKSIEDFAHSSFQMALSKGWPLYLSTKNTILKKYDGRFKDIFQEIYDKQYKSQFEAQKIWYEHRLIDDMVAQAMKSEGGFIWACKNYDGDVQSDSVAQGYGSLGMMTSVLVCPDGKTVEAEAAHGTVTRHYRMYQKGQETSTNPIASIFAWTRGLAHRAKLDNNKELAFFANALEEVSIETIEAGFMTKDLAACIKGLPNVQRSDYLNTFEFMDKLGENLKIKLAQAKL

IC50	Compound
0.1 to 1 µM	Cn1c(=O)oc2ccc(NCc3cc4cc(Cl)ccc4[nH]c3=O)cc21 [Compound I-2, 6-chloro-3-{[(3-methyl-2-oxo-2,3-dihydro-1,3-benzoxazol-5-yl)amino]methyl}-1,2-dihydroquinolin-2-one]
0.1 to 1 µM	O=c1[nH]c2cc(NCc3cc4cc(Cl)ccc4[nH]c3=O)ccc2o1 [Compound I-3, 6-chloro-3-{[(2-oxo-2,3-dihydro-1,3-benzoxazol-5-yl)amino]methyl}-1,2-dihydroquinolin-2-one]
0.1 to 1 µM	CN1C(=O)CCc2cc(NCc3cc4cc(Cl)ccc4[nH]c3=O)ccc21 [Compound I-5, 6-chloro-3-{[(1-methyl-2-oxo-1,2,3,4-tetrahydroquinolin-6-yl)amino]methyl}-1,2-dihydroquinolin-2-one]
1 to 10 µM	O=c1[nH]c2ccc(Cl)cc2cc1CNc1cc2ccccc2cn1 [Compound I-6, 6-chloro-3-{[(isoquinolin-3-yl)amino]methyl}-1,2-dihydroquinolin-2-one]
1 to 10 µM	O=c1[nH]c2ccc(Cl)cc2cc1CNc1cccc2cccnc12 [Compound I-8, 6-chloro-3-{[(quinolin-8-yl)amino]methyl}-1,2-dihydroquinolin-2-one]
1 to 10 µM	O=c1[nH]c2ccc(Cl)cc2cc1CNc1cccc2c1OCC2 [Compound I-9, 6-chloro-3-{[(2,3-dihydro-1-benzofuran-7-yl)amino]methyl}-1,2-dihydroquinolin-2-one]
1 to 10 µM	CN1C(=O)COc2cc(NCc3cc4cc(Cl)ccc4[nH]c3=O)ccc21 [Compound I-10, 7-{[(6-chloro-2-oxo-1,2-dihydroquinolin-3-yl)methyl]amino}-4-methyl-3,4-dihydro-2H-1,4-benzoxazin-3-one]
1 to 10 µM	O=C1COc2cc(NCc3cc4cc(Cl)ccc4[nH]c3=O)ccc2N1 [Compound I-11, 7-{[(6-chloro-2-oxo-1,2-dihydroquinolin-3-yl)methyl]amino}-3,4-dihydro-2H-1,4-benzoxazin-3-one]
> 10 µM	COc1cc2cc(CNc3ccc4[nH]c(-c5ccc6[nH]cnc6c5)nc4c3)c(=O)[nH]c2cc1OC [Compound I-12, 3-({[2-(1H-1,3-benzodiazol-5-yl)-1H-1,3-benzodiazol-5-yl]amino}methyl)-6,7-dimethoxy-1,2-dihydroquinolin-2-one]
> 10 µM	O=C1Cc2ccc(NCc3cc4cc(Cl)ccc4[nH]c3=O)cc2N1 [Compound I-13, 6-chloro-3-{[(2-oxo-2,3-dihydro-1H-indol-6-yl)amino]methyl}-1,2-dihydroquinolin-2-one]
> 10 µM	Cn1c(=O)oc2cc(NCc3cc4cc(Cl)ccc4[nH]c3=O)ccc21 [Compound I-14, 6-chloro-3-{[(3-methyl-2-oxo-2,3-dihydro-1,3-benzoxazol-6-yl)amino]methyl}-1,2-dihydroquinolin-2-one]
> 10 µM	O=c1[nH]c2ccc(Cl)cc2cc1CNc1cccc2ccncc12 [Compound I-15, 6-chloro-3-{[(isoquinolin-8-yl)amino]methyl}-1,2-dihydroquinolin-2-one]
> 10 µM	O=c1[nH]c2ccc(Cl)cc2cc1CNc1cccc2c1OCCC2 [Compound I-16, 6-chloro-3-{[(3,4-dihydro-2H-1-benzopyran-8-yl)amino]methyl}-1,2-dihydroquinolin-2-one]
> 10 µM	COc1cc2c(cc1NCc1cc3cc(Cl)ccc3[nH]c1=O)NC(=O)CC2 [Compound I-17, 6-chloro-3-{[(6-methoxy-2-oxo-1,2,3,4-tetrahydroquinolin-7-yl)amino]methyl}-1,2-dihydroquinolin-2-one]
> 10 µM	O=C1CCc2ccc(NCc3cc4cc(Cl)ccc4[nH]c3=O)cc2N1 [Compound I-18, 6-chloro-3-{[(2-oxo-1,2,3,4-tetrahydroquinolin-7-yl)amino]methyl}-1,2-dihydroquinolin-2-one]
> 10 µM	Cc1n[nH]c2cc(NCc3cc4cc(Cl)ccc4[nH]c3=O)ccc12 [Compound I-19, 6-chloro-3-{[(3-methyl-1H-indazol-6-yl)amino]methyl}-1,2-dihydroquinolin-2-one]
1 to 10 µM	O=C1CCc2cc(NCc3cc4cc(Cl)ccc4[nH]c3=O)ccc2N1 [Compound I-20, 6-chloro-3-{[(2-oxo-1,2,3,4-tetrahydroquinolin-6-yl)amino]methyl}-1,2-dihydroquinolin-2-one]
> 10 µM	COc1ccc2[nH]c(=O)c(CNc3ccc4sc(C)nc4c3)cc2c1 [Compound I-21, 6-methoxy-3-{[(2-methyl-1,3-benzothiazol-5-yl)amino]methyl}-1,2-dihydroquinolin-2-one]
> 10 µM	O=C1CCCc2c(NCc3cc4cc(Cl)ccc4[nH]c3=O)cccc21 [Compound I-22, 6-chloro-3-{[(5-oxo-5,6,7,8-tetrahydronaphthalen-1-yl)amino]methyl}-1,2-dihydroquinolin-2-one]
> 10 µM	O=c1[nH]c2ccc(Cl)cc2cc1CNc1ccc2nncn2n1 [Compound I-23, 6-chloro-3-[({[1,2,4]triazolo[4,3-b]pyridazin-6-yl}amino)methyl]-1,2-dihydroquinolin-2-one]
> 10 µM	O=c1[nH]c2ccc(Cl)cc2cc1CNc1ccc2[nH]cnc2c1 [Compound I-24, 3-{[(1H-1,3-benzodiazol-5-yl)amino]methyl}-6-chloro-1,2-dihydroquinolin-2-one]
> 10 µM	O=c1[nH]c2ccc(Cl)cc2cc1CNc1ccc2cn[nH]c2c1 [Compound I-25, 6-chloro-3-{[(1H-indazol-6-yl)amino]methyl}-1,2-dihydroquinolin-2-one]
> 10 µM	O=c1[nH]c2ccc(Cl)cc2cc1CNc1ccc2ncsc2c1 [Compound I-26, 3-{[(1,3-benzothiazol-6-yl)amino]methyl}-6-chloro-1,2-dihydroquinolin-2-one]
> 10 µM	O=c1[nH]c2ccc(Cl)cc2cc1CNc1ccc2ncccc2c1 [Compound I-27, 6-chloro-3-{[(quinolin-6-yl)amino]methyl}-1,2-dihydroquinolin-2-one]
> 10 µM	O=c1[nH]c2ccc(Cl)cc2cc1CNc1ccc2[nH]c(C(F)(F)F)nc2c1 [Compound I-28, 6-chloro-3-({[2-(trifluoromethyl)-1H-1,3-benzodiazol-5-yl]amino}methyl)-1,2-dihydroquinolin-2-one]
> 10 µM	O=c1[nH]c2ccc(Cl)cc2cc1CNc1ccc2scnc2c1 [Compound I-29, 3-{[(1,3-benzothiazol-5-yl)amino]methyl}-6-chloro-1,2-dihydroquinolin-2-one]
> 10 µM	COc1ccc2[nH]c(=O)c(CNc3ccc4c(c3)OCCO4)cc2c1 [Compound I-30, 3-{[(2,3-dihydro-1,4-benzodioxin-6-yl)amino]methyl}-6-methoxy-1,2-dihydroquinolin-2-one]
> 10 µM	Cc1cc2cc(CNc3ccc4cn[nH]c4c3)c(=O)[nH]c2cc1C [Compound I-31, 3-{[(1H-indazol-6-yl)amino]methyl}-6,7-dimethyl-1,2-dihydroquinolin-2-one]
> 10 µM	Cc1ccc2cc(NCc3cc4cc(Cl)ccc4[nH]c3=O)ccc2n1 [Compound I-32, 6-chloro-3-{[(2-methylquinolin-6-yl)amino]methyl}-1,2-dihydroquinolin-2-one]

Compound	IC50
N#Cc1ccc(NCc2cc3cc(Cl)ccc3[nH]c2=O)c2ccccc12 [Compound I-7, 4-{[(6-chloro-2-oxo-1,2-dihydroquinolin-3-yl)methyl]amino}naphthalene-1-carbonitrile]	1 to 10 µM
